One block for each compound: values may come before it.
Key:
[1] = tested on: P. falciparum 3D7 trophozoites; assay: Metabolomic fingerprint profiling LC-MS; assay type: cell-based, Plasmodium falciparum; parameters: UDP-D-glucose / ADP-D-glucose: unit not given here; conditions: for Acetyllysine / N-acetyl-L-ornithine / N-carbamoyl-L-aspartate / NADPH / dAMP / dCMP / dTDP / dTMP / dTTP / dihydroorotate / orotate / DLH / DLS/SDL/SID / PD / PEE / PVNF / 3-phosphoglycerate / ADP-D-glucose / ATP / CDP / D-sedoheptulose-1/7-phosphate / FAD / GMP / NAD+ / NADP+ / Octoluse Bisphosphate / Pyroglutamic acid / UDP-D-glucose / UDP-D-glucuronate / UDP-N-acetyl-glucosamine / UDP / UMP / UTP / a-ketoglutarate / citrate/isocitrate / cytidine / dATP / dGMP/AMP / fumarate / glucose-1/6-phosphate / glycerate / guanine / guanosine / hypoxanthine / indole / inosine / nicotinate / ornithine / phosphoenolpyruvate / pyruvate / ribose-phosphate / sarcosine/alanine / sn-glycerol-3-phosphate / succinate/methylmalonic acid / uridine / xanthosine: S2 Table Metabolomics; for Acetyllysine: metabolite Acetyllysine; for N-acetyl-L-ornithine: metabolite N-acetyl-L-ornithine; for N-carbamoyl-L-aspartate: metabolite N-carbamoyl-L-aspartate; for NADPH: metabolite NADPH; for dAMP: metabolite dAMP; for dCMP: metabolite dCMP; for dTDP: metabolite dTDP; for dTMP: metabolite dTMP; for dTTP: metabolite dTTP; for dihydroorotate: metabolite dihydroorotate; for orotate: metabolite orotate; for DLH: peptide DLH; for DLS/SDL/SID: peptide DLS/SDL/SID; for PD: peptide PD; for PEE: peptide PEE; for PVNF: peptide PVNF; for 3-phosphoglycerate: metabolite 3-phosphoglycerate; for ADP-D-glucose: metabolite ADP-D-glucose; for ATP: metabolite ATP; for CDP: metabolite CDP; for CDP / D-sedoheptulose-1/7-phosphate / GMP / Octoluse Bisphosphate / UDP / UMP / UTP / citrate/isocitrate / dGMP/AMP / fumarate / glucose-1/6-phosphate / glycerate / guanine / guanosine / inosine / pyruvate / sarcosine/alanine / succinate/methylmalonic acid / uridine / xanthosine: change in metabolite level after compound treatment; for D-sedoheptulose-1/7-phosphate: metabolite D-sedoheptulose-1/7-phosphate; for FAD: metabolite FAD; for GMP: metabolite GMP; for NAD+: metabolite NAD+; for NADP+: metabolite NADP+; for Octoluse Bisphosphate: metabolite Octoluse Bisphosphate; for Pyroglutamic acid: metabolite Pyroglutamic acid; for UDP-D-glucose: metabolite UDP-D-glucose; for UDP-D-glucuronate: metabolite UDP-D-glucuronate; for UDP-N-acetyl-glucosamine: metabolite UDP-N-acetyl-glucosamine; for UDP: metabolite UDP; for UMP: metabolite UMP; for UTP: metabolite UTP; for a-ketoglutarate: metabolite a-ketoglutarate; for citrate/isocitrate: metabolite citrate/isocitrate; for cytidine: metabolite cytidine; for dATP: metabolite dATP; for dGMP/AMP: metabolite dGMP/AMP; for fumarate: metabolite fumarate; for glucose-1/6-phosphate: metabolite glucose-1/6-phosphate; for glycerate: metabolite glycerate; for guanine: metabolite guanine; for guanosine: metabolite guanosine; for hypoxanthine: metabolite hypoxanthine; for indole: metabolite indole; for inosine: metabolite inosine; for 2_3-Diphosphoglyceric acid / 4-phosphopantothenate / 6-phospho-D-gluconate / FMN / IMP / Pyrophosphate / Sedoheptoluse bisphosphate / cyclic-AMP / glutathione disulfide / lactate / myo-inositol: metabolite level change after treatment; for nicotinate: metabolite nicotinate; for ornithine: metabolite ornithine; for phosphoenolpyruvate: metabolite phosphoenolpyruvate; for pyruvate: metabolite pyruvate; for ribose-phosphate: metabolite ribose-phosphate; for sarcosine/alanine: metabolite sarcosine/alanine; for sn-glycerol-3-phosphate: metabolite sn-glycerol-3-phosphate; for succinate/methylmalonic acid: metabolite succinate/methylmalonic acid; for uridine: metabolite uridine; for xanthosine: metabolite xanthosine
P. falciparum = assay: EC50 listed in S2 Table Metabolomics (used to set the concentration tested); assay type: cell-based; conditions: Plasmodium falciparum; EC50 used for Factor_XEC50 in metabolomics; read-out: EC50_nM

EC50 (P. falciparum): 516 nM
Structure (SMILES): COc1ccc(C(=O)Nc2nonc2-c2ccc(OC)c(OC)c2)cc1Cl [MMV011567]
Acetyllysine [1]: -2.7765
N-acetyl-L-ornithine [1]: -1.047
N-carbamoyl-L-aspartate [1]: -1.546
NADPH [1]: -0.479
dAMP [1]: 2.616
dCMP [1]: 7.615
dTDP [1]: 4.376
dTMP [1]: 5.592
dTTP [1]: 4.192
dihydroorotate [1]: -1.311
orotate [1]: 1.606
DLH [1]: -3.738
DLS/SDL/SID [1]: -3.085
PD [1]: -0.447
PEE [1]: -2.659
PVNF [1]: -4.149
3-phosphoglycerate [1]: -0.4312
ADP-D-glucose [1]: -0.3179
ATP [1]: 0.7262
CDP [1]: 1.853
D-sedoheptulose-1/7-phosphate [1]: -0.5728
FAD [1]: -0.6926
GMP [1]: -3.051
NAD+ [1]: -0.6365
NADP+ [1]: -0.4288
Octoluse Bisphosphate [1]: -1.352
Pyroglutamic acid [1]: 0.8228
UDP-D-glucose [1]: 0.2841
UDP-D-glucuronate [1]: 0.3235
UDP-N-acetyl-glucosamine [1]: 0.4364
UDP [1]: 1.166
UMP [1]: 0.1995
UTP [1]: 0.7659
a-ketoglutarate [1]: -0.1289
citrate/isocitrate [1]: 1.575
cytidine [1]: 0.6834
dATP [1]: 1.434
dGMP/AMP [1]: -0.9068
fumarate [1]: 0.5595
glucose-1/6-phosphate [1]: -0.4437
glycerate [1]: -0.2059
guanine [1]: 1.129
guanosine [1]: 0.9628
hypoxanthine [1]: 0.8431
indole [1]: 0.1357
inosine [1]: -0.4655
2_3-Diphosphoglyceric acid [1]: -0.4768
4-phosphopantothenate [1]: 0.1624
6-phospho-D-gluconate [1]: 0.2149
FMN [1]: 0.2743
IMP [1]: 0.2415
Pyrophosphate [1]: -0.9055
Sedoheptoluse bisphosphate [1]: -0.2891
cyclic-AMP [1]: 0.1677
glutathione disulfide [1]: 0.2649
lactate [1]: -0.6986
myo-inositol [1]: -1.672
nicotinate [1]: 1.088
ornithine [1]: 0.1615
phosphoenolpyruvate [1]: -0.2076
pyruvate [1]: -1.296
ribose-phosphate [1]: -0.6006
sarcosine/alanine [1]: -1.205
sn-glycerol-3-phosphate [1]: 0.6609
succinate/methylmalonic acid [1]: -0.1426
uridine [1]: 0.07808
xanthosine [1]: 0.9674

EC50 (P. falciparum): 232 nM
Structure (SMILES): CCOC(=O)c1cnc2c(C)cc(C)cc2c1Nc1ccc(OC)c(OC)c1 [MMV008294]
Acetyllysine [1]: -0.3425
N-acetyl-L-ornithine [1]: -0.09501
N-carbamoyl-L-aspartate [1]: 2.682
NADPH [1]: 1.75
dAMP [1]: 0.2089
dCMP [1]: -0.6198
dTDP [1]: -0.4672
dTMP [1]: -0.4876
dTTP [1]: -1.144
dihydroorotate [1]: 3.3871
orotate [1]: -0.7416
DLH [1]: -0.5675
DLS/SDL/SID [1]: -0.4346
PD [1]: -0.1287
PEE [1]: -0.648
PVNF [1]: -0.7723
3-phosphoglycerate [1]: -0.683
ADP-D-glucose [1]: -0.352
ATP [1]: -0.07176
CDP [1]: -0.1705
D-sedoheptulose-1/7-phosphate [1]: -0.3446
FAD [1]: 0.0322
GMP [1]: -0.1695
NAD+ [1]: -0.3043
NADP+ [1]: -0.3797
Octoluse Bisphosphate [1]: -0.4297
Pyroglutamic acid [1]: 0.3043
UDP-D-glucose [1]: -0.27
UDP-D-glucuronate [1]: -0.2831
UDP-N-acetyl-glucosamine [1]: -0.5063
UDP [1]: -0.5787
UMP [1]: -1.283
UTP [1]: -1.136
a-ketoglutarate [1]: -0.236
citrate/isocitrate [1]: 0.7822
cytidine [1]: 0.0959
dATP [1]: 1.0046
dGMP/AMP [1]: -0.5258
fumarate [1]: -0.9618
glucose-1/6-phosphate [1]: 0.01885
glycerate [1]: 0.4536
guanine [1]: 0.3469
guanosine [1]: 2.083
hypoxanthine [1]: 0.2152
indole [1]: 0.4569
inosine [1]: 0.05445
2_3-Diphosphoglyceric acid [1]: -0.768
4-phosphopantothenate [1]: -0.7166
6-phospho-D-gluconate [1]: -0.1153
FMN [1]: 0.06908
IMP [1]: -0.2706
Pyrophosphate [1]: -0.2511
Sedoheptoluse bisphosphate [1]: -0.4052
cyclic-AMP [1]: -0.1956
glutathione disulfide [1]: -0.2281
lactate [1]: 0.2967
myo-inositol [1]: 0.2424
nicotinate [1]: 0.04647
ornithine [1]: -0.4808
phosphoenolpyruvate [1]: -0.6158
pyruvate [1]: 0.09912
ribose-phosphate [1]: -0.7165
sarcosine/alanine [1]: -0.5269
sn-glycerol-3-phosphate [1]: -0.7886
succinate/methylmalonic acid [1]: 0.008672
uridine [1]: -0.03724
xanthosine [1]: 0.1462

EC50 (P. falciparum): 196 nM
Structure (SMILES): CCCN(CCC)CC(O)COc1ccccc1C(=O)Nc1ccccc1 (stereo not drawn) [MMV006455]
Acetyllysine [1]: -1.84
N-acetyl-L-ornithine [1]: -1.412
N-carbamoyl-L-aspartate [1]: -1.358
NADPH [1]: 1.245
dAMP [1]: 1.1553
dCMP [1]: -0.6709
dTDP [1]: 0.7128
dTMP [1]: 1.286
dTTP [1]: -0.4381
dihydroorotate [1]: -1.042
orotate [1]: -1.326
DLH [1]: -3.333
DLS/SDL/SID [1]: -1.242
PD [1]: -1.741
PEE [1]: -6.259
PVNF [1]: -1.503
3-phosphoglycerate [1]: 0.4787
ADP-D-glucose [1]: 0.3541
ATP [1]: 0.3304
CDP [1]: 0.5091
D-sedoheptulose-1/7-phosphate [1]: 0.2206
FAD [1]: 0.7675
GMP [1]: -0.1404
NAD+ [1]: 0.6496
NADP+ [1]: 1.103
Octoluse Bisphosphate [1]: 0.1196
Pyroglutamic acid [1]: -0.5503
UDP-D-glucose [1]: 0.16
UDP-D-glucuronate [1]: -0.0808
UDP-N-acetyl-glucosamine [1]: 0.351
UDP [1]: 0.8505
UMP [1]: -0.5223
UTP [1]: -1.889
a-ketoglutarate [1]: -0.6936
citrate/isocitrate [1]: -1.1034
cytidine [1]: 1.29
dATP [1]: -1.015
dGMP/AMP [1]: 0.4722
fumarate [1]: -1.1903
glucose-1/6-phosphate [1]: 2.348
glycerate [1]: 0.5071
guanine [1]: 0.09569
guanosine [1]: -0.9351
hypoxanthine [1]: 0.1926
indole [1]: -0.2645
inosine [1]: 0.3717
2_3-Diphosphoglyceric acid [1]: 0.5499
4-phosphopantothenate [1]: 0.373
6-phospho-D-gluconate [1]: 0.458
FMN [1]: 0.8429
IMP [1]: 0.8206
Pyrophosphate [1]: -0.6263
Sedoheptoluse bisphosphate [1]: 0.2316
cyclic-AMP [1]: 0.1549
glutathione disulfide [1]: 0.487
lactate [1]: 1.338
myo-inositol [1]: 3.347
nicotinate [1]: 0.09812
ornithine [1]: -0.2237
phosphoenolpyruvate [1]: 0.01215
pyruvate [1]: 0.467
ribose-phosphate [1]: -0.04809
sarcosine/alanine [1]: -0.7349
sn-glycerol-3-phosphate [1]: -0.3619
succinate/methylmalonic acid [1]: -0.7549
uridine [1]: 0.2304
xanthosine [1]: -2.143

Reference: PMC4965013, “Open Source Drug Discovery with the Malaria Box Compound Collection for Neglected Diseases and Beyond” (PLoS Pathogens, 2016)
